Columns and labels:
eIF2B = biological target: T1, eIF2B (Homo sapiens, UniProt P49770+Q9UI10); experiment: ATF4-Luc assay (ATF4 luciferase reporter, thapsigargin-induced stress); format: cell-based; conditions: HEK293T/17-ATF4 uORF-Luc-Puro monoclonal cells, 50 nM thapsigargin, incubated for 6 hours
T1 construct: endogenous in cells; host or cells: HEK293T/17-ATF4 uORF-Luc-Puro monoclonal cells
Source text: The ATF4 luciferase reporter plasmid consists of two parts, i.e., the 5′ untranslated region sequence of the ATF4 gene and the luciferase coding sequence. Specifically, the ATF4 5′ untranslated region sequence (NCBI database number BC022088.2) containing two upstream open reading frames (uORFs), and the firefly luciferase encoding gene were cloned into the pLVX-Puro vector (YouBio, VT1465). The packaging plasmids of lentivirus were psPAX2 (YouBio, VT1444) and pMD2.G (YouBio, VT1443). 650,000 HEK293T cells were seeded per well of a 6-well plate and cultured overnight in a 5% CO2 incubator. The cells were transfected with the packaged lentivirus for 48 hours and then centrifuged, and the supernatant was discarded. The medium was replaced and changed to the DMEM complete medium containing 0.8 μg/ml puromycin, and the cells were resuspended and then cultured. After one week of cell screening with puromycin, the surviving cells were HEK293T-ATF4 uORF-Luc-Puro polyclonal cells. 200 polyclonal cells were taken and subjected to limiting gradient dilution by using a 96-well plate, so as to obtain monoclonal cells.
The specific method for screening the monoclonal cells involves: placing the 200 polyclonal cells in well A1 of the 96-well plate; step one: performing gradient dilution from columns A1 to H1 at a ratio of 1:2; step two: performing gradient dilution from rows A to H, with each row from wells 1 to 12 at a ratio of 1:2; marking the wells with a theoretical cell number less than 0.5 and observing one by one under a microscope; marking the wells with only one cell; and culturing the cells for two weeks to obtain the monoclonal cells.
By using this cell line and the cold fluorescence readings, the translational regulation of ATF4 can be detected, and the activity of eIF2B activated by the compounds can be tested.
The specific experimental process is as follows: 6000 HEK293T/17-ATF4 uORF-Luc-Puro monoclonal cells were plated in a 384-well plate and allowed to adhere overnight. The test compounds were dissolved in DMSO and diluted to 10 different concentrations, which were respectively added together with 50 nM thapsigargin to the cell culture medium and incubated for 6 hours, wherein the thapsigargin was used to cause cellular stress and upregulate the protein translation of ATF4. Six hours after the addition, the cells were lysed using the One-Glo Luciferase Assay Kit (Promega #E6120), and then the cold fluorescence values were read using the LUM program of the EnVision 2104 plate reader.
EC50 was calculated based on the fluorescence values at 9 concentrations (0.1 nM, 0.3 nM, 1.0 nM, 3.0 nM, 10.0 nM, 30.0 nM, 100.0 nM, 300.0 nM and 1000.0 nM) of each compound and recorded in Table 1.
The ATF4 reporter expression was calculated as follows:
ATF4 reporter expression=(ave_sample-ave_vc)/(ave_pc-ave_vc)
where ave_vc represents the average signal value of negative controls, ave_pc represents the average signal value of positive controls, and ave_sample represents the average signal value of samples.
The dose-response curves were fitted, and the EC50 values were calculated.
The nonlinear regression log(inhibitor) vs. response—variable slope (four parameters) method of GraphPad 9 software was used to fit the corresponding relationship between the ATF4 reporter expression and the compound concentration.
The X-axis represents the log value of the compound concentration; and the Y-axis represents the ATF4 reporter expression.

mouse models = conditions: cited from earlier work
[1] = Evaluation of cell membrane permeability; format: in vitro ADME; conditions: 10 μM, transport buffer (HBSS+BSA), 37° C., 120 minutes
Procedure: The test compounds were diluted from 10 mM stock solutions to a concentration of 10 μM using the transport buffer (HBSS+BSA) and applied to the apical or basolateral side of the cell monolayer. After the incubation at 37° C., 5% CO2 and 95% relative humidity for 120 minutes, the permeability of the test compounds in the A to B direction or the B to A direction was dually determined. In addition, the efflux ratio (Papp B to A/Papp A to B) of each compound was determined. The test substances and reference substances were quantitatively analyzed by the LC-MS/MS method based on the analyte/IS peak area ratio.

T1 sequence (P49770 whole entry): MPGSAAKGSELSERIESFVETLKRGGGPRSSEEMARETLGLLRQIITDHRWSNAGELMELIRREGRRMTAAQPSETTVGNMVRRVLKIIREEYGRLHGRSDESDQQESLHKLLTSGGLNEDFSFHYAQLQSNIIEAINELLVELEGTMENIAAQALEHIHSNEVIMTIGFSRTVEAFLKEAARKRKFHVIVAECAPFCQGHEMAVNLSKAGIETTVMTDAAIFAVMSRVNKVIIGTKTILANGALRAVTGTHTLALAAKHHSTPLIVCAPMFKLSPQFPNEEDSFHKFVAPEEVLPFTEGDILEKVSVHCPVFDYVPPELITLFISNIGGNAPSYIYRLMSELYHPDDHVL
T1 sequence (Q9UI10 whole entry): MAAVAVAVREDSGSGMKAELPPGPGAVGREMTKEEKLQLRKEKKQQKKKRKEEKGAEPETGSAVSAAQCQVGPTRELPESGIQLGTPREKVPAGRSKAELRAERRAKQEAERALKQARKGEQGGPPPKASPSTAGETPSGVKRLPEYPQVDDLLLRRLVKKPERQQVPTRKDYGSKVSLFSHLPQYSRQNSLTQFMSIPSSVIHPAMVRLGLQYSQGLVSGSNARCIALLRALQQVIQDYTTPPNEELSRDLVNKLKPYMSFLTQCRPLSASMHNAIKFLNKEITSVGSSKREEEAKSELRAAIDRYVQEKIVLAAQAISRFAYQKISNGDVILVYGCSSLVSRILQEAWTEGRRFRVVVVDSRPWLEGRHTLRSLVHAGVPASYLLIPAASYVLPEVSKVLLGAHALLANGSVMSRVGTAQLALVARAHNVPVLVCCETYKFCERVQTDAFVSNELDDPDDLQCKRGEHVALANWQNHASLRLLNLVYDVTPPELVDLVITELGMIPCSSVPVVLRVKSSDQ
T1 sequence (Q14232 whole entry partner): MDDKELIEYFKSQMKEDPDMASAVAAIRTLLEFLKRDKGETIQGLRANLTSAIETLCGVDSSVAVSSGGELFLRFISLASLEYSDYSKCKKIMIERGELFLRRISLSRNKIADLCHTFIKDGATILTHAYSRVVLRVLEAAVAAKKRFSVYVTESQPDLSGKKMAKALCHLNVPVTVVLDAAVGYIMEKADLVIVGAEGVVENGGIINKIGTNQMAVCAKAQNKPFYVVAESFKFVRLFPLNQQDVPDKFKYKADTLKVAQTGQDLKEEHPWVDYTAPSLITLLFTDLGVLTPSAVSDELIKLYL
T1 sequence (Q9NR50 whole entry partner): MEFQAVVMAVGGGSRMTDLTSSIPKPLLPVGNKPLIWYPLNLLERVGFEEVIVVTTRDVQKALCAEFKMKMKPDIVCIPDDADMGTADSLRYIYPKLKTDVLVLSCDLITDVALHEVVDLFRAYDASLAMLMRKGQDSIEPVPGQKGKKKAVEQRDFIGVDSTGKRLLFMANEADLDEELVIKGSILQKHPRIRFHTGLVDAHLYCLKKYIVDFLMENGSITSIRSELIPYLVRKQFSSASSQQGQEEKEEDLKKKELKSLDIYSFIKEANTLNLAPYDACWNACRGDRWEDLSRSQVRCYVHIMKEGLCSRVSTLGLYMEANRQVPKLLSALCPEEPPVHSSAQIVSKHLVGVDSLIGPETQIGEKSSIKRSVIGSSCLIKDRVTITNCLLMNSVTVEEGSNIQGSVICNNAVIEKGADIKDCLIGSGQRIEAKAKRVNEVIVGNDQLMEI
T1 sequence (Q13144 whole entry partner): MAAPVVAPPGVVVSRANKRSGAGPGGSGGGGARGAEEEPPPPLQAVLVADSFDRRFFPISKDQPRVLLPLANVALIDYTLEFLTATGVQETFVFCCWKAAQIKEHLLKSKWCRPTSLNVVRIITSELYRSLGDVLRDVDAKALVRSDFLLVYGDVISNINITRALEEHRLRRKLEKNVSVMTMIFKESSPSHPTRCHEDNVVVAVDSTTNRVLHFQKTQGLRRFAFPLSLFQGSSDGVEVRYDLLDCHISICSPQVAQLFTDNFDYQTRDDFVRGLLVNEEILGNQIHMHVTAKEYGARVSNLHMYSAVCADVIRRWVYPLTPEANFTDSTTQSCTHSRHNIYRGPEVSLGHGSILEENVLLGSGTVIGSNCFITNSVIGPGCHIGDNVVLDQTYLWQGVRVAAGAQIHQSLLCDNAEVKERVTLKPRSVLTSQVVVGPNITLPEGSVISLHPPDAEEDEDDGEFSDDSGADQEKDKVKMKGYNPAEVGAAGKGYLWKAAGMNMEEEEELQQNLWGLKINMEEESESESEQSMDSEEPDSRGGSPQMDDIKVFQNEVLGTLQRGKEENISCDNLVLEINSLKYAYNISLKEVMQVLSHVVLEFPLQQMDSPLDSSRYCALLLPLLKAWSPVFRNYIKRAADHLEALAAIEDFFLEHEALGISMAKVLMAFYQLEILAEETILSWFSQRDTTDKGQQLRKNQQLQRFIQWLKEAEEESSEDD

Row | SMILES | EC50 (eIF2B) | other results
1 | O=C(COc1ccc(Cl)c(F)c1)NC1CC2(C1)CC(NC(=O)c1cnc(C(F)F)cn1)C2 (stereo not shown) [III-11] | > 100 nM | 
2 | CN1CC(C(=O)NC2CC3(CC(NC(=O)COc4ccc(Cl)c(F)c4)C3)C2)Oc2ccc(Cl)cc21 (stereo not shown) [III-12] | > 100 nM | 
3 | O=C(COc1ccc(Cl)c(F)c1)NC1CC2(C1)CC(NC(=O)C1CNc3cc(Cl)ccc3O1)C2 (stereo not shown) [III-13] | 10 to 100 nM | 
4 | O=C(COc1ccc(Cl)cc1)NC1CCC(NC(=O)COc2ccc(Cl)cc2)CC1 (stereo not shown) [ISRIB] |  | long-term memory (in words) (mouse models): improve long-term memory
5 | O=C(COc1ccc(Cl)c(F)c1)NC1CC2(CCN(c3nnc(N4CC(OC(F)(F)F)C4)o3)CC2)C1 [IV-1] | 10 to 100 nM | 
6 | O=C(COc1ccc(Cl)c(F)c1)NC1CC2(CCN(C(=O)COc3ccc(Cl)c(F)c3)CC2)C1 [IV-11] | 10 to 100 nM | 
7 | O=C(COc1ccc(Cl)c(F)c1)NC1CC2(CCN(C(=O)c3cnc(C(F)F)cn3)CC2)C1 [IV-12] | > 100 nM | 
8 | O=C(COc1ccc(Cl)c(F)c1)NC1CC2(CCN(C(=O)[C@H]3CNc4cc(Cl)ccc4O3)CC2)C1 [IV-13] | < 10 nM | 
9 | O=C(COc1ccc(Cl)c(F)c1)NC1CC2(CCN(c3nnc(-c4ccc(Cl)cc4)o3)CC2)C1 [IV-14] | 10 to 100 nM | 
10 | CN1C[C@H](C(=O)N2CCC3(CC2)CC(NC(=O)COc2ccc(Cl)c(F)c2)C3)Oc2ccc(Cl)cc21 [IV-15] | > 100 nM | 
11 | O=C(CO[C@H]1C[C@@H](OC(F)(F)F)C1)NC1CC2(CCN(C(=O)c3cc4cc(Cl)ccc4o3)CC2)C1 [IV-16] | > 100 nM | 
12 | O=C(CO[C@H]1C[C@@H](OC(F)(F)F)C1)NC1CC2(CCN(C(=O)COc3ccc(Cl)c(F)c3)CC2)C1 [IV-17] | > 100 nM | 
13 | O=C(NC1CC2(CCN(C(=O)[C@@H]3CNc4cc(Cl)ccc4O3)CC2)C1)[C@H]1CNc2cc(Cl)ccc2O1 [IV-18] | 10 to 100 nM | 
14 | O=C(COc1ccc(Cl)c(F)c1)NC1CC2(CCN(C(=O)c3cc4cc(Cl)ccc4o3)CC2)C1 [IV-19] | 10 to 100 nM | 
15 | O=C(NC1CC2(CCN(C(=O)c3cc4cc(Cl)ccc4o3)CC2)C1)c1cc2cc(Cl)ccc2o1 [IV-20] | < 10 nM | 
16 | CC(C)NCC(O)COc1cccc2ccccc12 (stereo not shown) [Propranolol] |  | Papp A→B at 120 min, 10 μM [1]: 32.4 ×10⁻⁶ cm/s; Papp B→A at 120 min, 10 μM [1]: 20.1 ×10⁻⁶ cm/s
17 | O=C(COc1ccc(Cl)c(F)c1)NC1CCC2(CC1)CN(C(=O)COc1ccc(Cl)c(F)c1)C2 [V-10] | 10 to 100 nM | 
18 | O=C(COc1ccc(Cl)c(F)c1)NC1CCC2(CC1)CN(C(=O)c1cnc(C(F)F)cn1)C2 [V-11] | > 100 nM | 
19 | O=C(COc1ccc(Cl)c(F)c1)NC1CCC2(CC1)CN(C(=O)C1CNc3cc(Cl)ccc3O1)C2 (stereo not shown) [V-12] | > 100 nM | 
20 | O=C(COc1ccc(Cl)c(F)c1)NC1CC2(CCC(c3nnc(N4CC(OC(F)(F)F)C4)o3)CC2)C1 (stereo not shown) [VI-1] | 10 to 100 nM | 
21 | O=C(COc1ccc(Cl)c(F)c1)NC1CCC(c2nnc(N3CC(OC(F)(F)F)C3)o2)C2(CC2)C1 (stereo not shown) [VIII-1] | < 10 nM | 

From patent US20260035355A1, “COMPOUND, PHARMACEUTICAL COMPOSITION COMPRISING SAME, AND USE THEREOF” (SHENZHEN ZHONGGE BIOLOGICAL TECHNOLOGY CO., LTD., priority 2022, published 2026)
